Here are results for 13 molecules from US8946296B2, “Substituted heteroaryl- and aryl-cyclopropylamine acetamides and their use” (Oryzon Genomics S.A., priority 2009, dated 2015).

One assay concerns the target T1, MAO-A (Homo sapiens, UniProt P21397).
T1 construct: purchased Sigma Aldrich
T1 sequence (P21397 1-527): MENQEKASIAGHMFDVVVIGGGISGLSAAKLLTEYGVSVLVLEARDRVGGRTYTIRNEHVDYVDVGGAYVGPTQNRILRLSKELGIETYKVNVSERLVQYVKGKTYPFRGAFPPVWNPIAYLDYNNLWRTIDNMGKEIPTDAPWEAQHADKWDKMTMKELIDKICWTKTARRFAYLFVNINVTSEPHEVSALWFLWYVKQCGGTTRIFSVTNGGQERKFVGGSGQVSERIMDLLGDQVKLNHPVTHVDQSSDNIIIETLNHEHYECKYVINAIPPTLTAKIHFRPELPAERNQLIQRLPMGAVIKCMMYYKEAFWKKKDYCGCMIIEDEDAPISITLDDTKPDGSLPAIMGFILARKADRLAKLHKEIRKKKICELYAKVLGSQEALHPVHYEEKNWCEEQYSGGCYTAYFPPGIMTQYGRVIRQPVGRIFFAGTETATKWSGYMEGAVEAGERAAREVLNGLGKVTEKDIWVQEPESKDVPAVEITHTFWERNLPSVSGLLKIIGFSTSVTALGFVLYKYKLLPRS
Kind of assay: Monoamine oxidase assay, MAO-A (kynuramine to 4-hydroxyquinoline fluorescence). It is filed as biochemical. The conditions noted are these: Ki (IC50) range class; human recombinant MAO-A, kynuramine substrate.

The target of the next assay is LSD1 (Homo sapiens, UniProt O60341). Nature of the assay: LSD1 inhibition assay (Amplex Red peroxide/peroxidase-coupled, di-methylated H3-K4 peptide substrate).
The target in another assay is T2, MAO-B (Homo sapiens, UniProt P27338).
T2 construct: purchased Sigma Aldrich
T2 sequence (P27338 1-520): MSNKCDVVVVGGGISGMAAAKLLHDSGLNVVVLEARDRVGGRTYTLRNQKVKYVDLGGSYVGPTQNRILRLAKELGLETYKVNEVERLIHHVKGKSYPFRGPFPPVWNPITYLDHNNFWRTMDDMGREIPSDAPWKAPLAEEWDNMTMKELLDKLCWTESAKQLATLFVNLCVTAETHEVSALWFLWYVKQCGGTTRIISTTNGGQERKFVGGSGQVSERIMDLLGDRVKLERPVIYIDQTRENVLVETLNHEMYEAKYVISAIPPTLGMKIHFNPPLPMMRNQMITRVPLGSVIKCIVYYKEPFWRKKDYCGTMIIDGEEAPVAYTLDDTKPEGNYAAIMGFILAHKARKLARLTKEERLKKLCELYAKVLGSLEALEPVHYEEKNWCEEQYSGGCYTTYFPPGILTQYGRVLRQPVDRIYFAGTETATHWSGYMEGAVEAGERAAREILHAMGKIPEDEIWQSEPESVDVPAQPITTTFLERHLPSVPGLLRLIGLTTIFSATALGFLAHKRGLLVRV
Nature of the assay: Monoamine oxidase assay, MAO-B (kynuramine to 4-hydroxyquinoline fluorescence). It counts as biochemical. The conditions noted are these: Ki (IC50) range class; human recombinant MAO-B, kynuramine substrate.

Where a name gives a salt, the structure may show the parent alone.

Description for MAO-A: (§1) Human recombinant monoamine oxidase proteins MAO-A and MAO-B were purchased from Sigma Aldrich. […] In order to monitor MAO enzymatic activities and/or their inhibition rate by inhibitor(s) of interest, a fluorescent-based (inhibitor)-screening assay was set up. 3-(2-Aminophenyl)-3-oxopropanamine (kynuramine dihydrobromide, Sigma Aldrich), a non fluorescent compound was chosen as a substrate. Kynuramine is a non-specific substrate for both MAOs activities. While undergoing oxidative deamination by MAO activities, kynuramine is converted into 4-hydroxyquinoline (4-HQ), a resulting fluorescent product.
(§2) The monoamine oxidase activity was estimated by measuring the conversion of kynuramine into 4-hydroxyquinoline. Assays were conducted in 96-well black plates with clear bottom (Corning) in a final volume of 100 μL. The assay buffer was 100 mM HEPES, pH 7.5. Each experiment was performed in triplicate within the same experiment.
(§3) The oxidative deamination of the substrate was stopped by adding 50 μL (v/v) of NaOH 2N.
(§4) The Ki of each inhibitor was measure at Vmax/2.
Description for MAO-B: as §1, §2, §3, §4

As to `N#Cc1ccc(COc2ccc([C@@H]3C[C@H]3NCC(N)=O)cc2)cc1` (relative stereo) [Example 1, 2-((trans)-2-(4-(4-cyanobenzyloxy)phenyl)cyclopropylamino)acetamide hydrochloride], the figures for the Ki at MAO-A, on LSD1 and on MAO-B were 5000 to 40000 nM, 10 to 100 nM and 100 to 500 nM, respectively.

As to `N#Cc1cccc(COc2ccc([C@@H]3C[C@H]3NCC(N)=O)cc2)c1` (relative stereo) [Example 2, 2-((trans)-2-(4-(3-cyanobenzyloxy)phenyl)cyclopropylamino)acetamide hydrochloride], the Ki lay in the range of 500 to 5000 nM on MAO-A, 10 to 100 nM on LSD1 and 100 to 500 nM at MAO-B.

In the case of `NC(=O)CN[C@@H]1C[C@H]1c1ccc(OCc2ccccc2)cc1` (relative stereo) [Example 3, 2-((trans)-2-(4-(benzyloxy)phenyl)cyclopropylamino)acetamide], the figures for the Ki at MAO-A, at LSD1 and on MAO-B were 5000 to 40000 nM, 100 to 500 nM and 100 to 500 nM, respectively.

On to `NC(=O)CN[C@@H]1C[C@H]1c1ccc(OCc2ccc(F)cc2)cc1` (relative stereo) [Example 4, 2-((trans)-2-(4-(4-fluorobenzyloxy)phenyl)cyclopropylamino)acetamide hydrochloride], for which the results for the Ki at MAO-A, on LSD1 and on MAO-B were above 40000 nM, 100 to 500 nM and 100 to 500 nM, respectively.

Consider `NC(=O)CN[C@@H]1C[C@H]1c1ccc(OCc2cccc(F)c2)cc1` (relative stereo) [Example 5, 2-((trans)-2-(4-(3-fluorobenzyloxy)phenyl)cyclopropylamino)acetamide hydrochloride], for which the Ki at MAO-A was 5000 to 40000 nM; on LSD1, 10 to 100 nM; at MAO-B, 100 to 500 nM.

For the molecule `NC(=O)CN[C@@H]1C[C@H]1c1ccc(OCc2cccc(Cl)c2)cc1` (relative stereo) [Example 6, 2-((trans)-2-(4-(3-chlorobenzyloxy)phenyl)cyclopropylamino)acetamide hydrochloride], the Ki is above 40000 nM at MAO-A, 10 to 100 nM at LSD1 and 100 to 500 nM on MAO-B.

With `NC(=O)CN[C@@H]1C[C@H]1c1ccc(OCc2ccc(Cl)cc2)cc1` (relative stereo) [Example 7, 2-((trans)-2-(4-(4-chlorobenzyloxy)phenyl)cyclopropylamino)acetamide hydrochloride], the Ki at MAO-A was above 40000 nM; on LSD1 it was 100 to 500 nM; on MAO-B, 100 to 500 nM.

Consider `NC(=O)CN[C@@H]1C[C@H]1c1ccc(OCc2cccc(Br)c2)cc1` (relative stereo) [Example 8, 2-((trans)-2-(4-(3-bromobenzyloxy)phenyl)cyclopropylamino)acetamide], for which the values for the Ki on MAO-A, on LSD1 and on MAO-B were 5000 to 40000 nM, 10 to 100 nM and 100 to 500 nM, respectively.

`NC(=O)CN[C@@H]1C[C@H]1c1ccc(OCc2cc(F)cc(F)c2)cc1` (relative stereo) [Example 9, 2((trans)-2-(4-(3,5-difluorobenzyloxy)phenyl)cyclopropylamino)acetamide]: the results for the Ki at MAO-A, on LSD1 and at MAO-B were 5000 to 40000 nM, 10 to 100 nM and 100 to 500 nM, respectively.

As to `NC(=O)CN[C@@H]1C[C@H]1c1ccc(OCCc2ccccc2)cc1` (relative stereo) [Example 10, 2-((trans)-2-(4-phenethoxyphenyl)cyclopropylamino)acetamide], the inhibition constant Ki at MAO-A fell in the range of 5000 to 40000 nM; at LSD1, 10 to 100 nM; on MAO-B, 100 to 500 nM.

Regarding `NC(=O)CN[C@@H]1C[C@H]1c1ccc(-c2cccc(C(F)(F)F)c2)cc1` (relative stereo) [Example 11, 2-((trans)-2-(3′-(trifluoromethyl)biphenyl-4-yl)cyclopropylamino)acetamide], the Ki at MAO-A is 5000 to 40000 nM; on LSD1 it was 100 to 500 nM; at MAO-B, 100 to 500 nM.

For the molecule `NC(=O)CN[C@@H]1C[C@H]1c1ccc(-c2ccc(Cl)cc2)nc1` (relative stereo) [Example 20, 2-((trans)-2-(6-(4-chlorophenyl)pyridin-3-yl)cyclopropylamino)acetamide], the figures for the Ki at MAO-A, on LSD1 and on MAO-B were 500 to 5000 nM, 10 to 100 nM and 500 to 5000 nM, respectively.

For the molecule `NC(=O)CN[C@H]1C[C@@H]1c1ccc(-c2ccc(-c3ccccc3)cc2)cc1` (stereo in doubt) [Example 12, 2-(2-[1,1′;4′,1″]Terphenyl-4″-yl-cyclopropylamino)acetamide], the Ki on MAO-A is above 40000 nM; on LSD1, 100 to 500 nM; at MAO-B, 100 to 500 nM.
